Reference: US8680052B1, “Methods of treating, reducing the incidence of, and/or preventing ischemic events” (The Medicines Company, priority 2013, dated 2014)
Read-outs that look alike come from different tables or passages of the source.

Tested on: patients undergoing percutaneous coronary intervention (PCI)
Settings: for OR (95% CI): All-cause mortality / OR (95% CI): IDR / OR (95% CI): MI / OR (95% CI): Mortality/MI/IDR / OR (95% CI): Mortality/Q-wave MI/IDR / OR (95% CI): Mortality/Q-wave MI/Stent thrombosis / OR (95% CI): Q-wave MI / OR (95% CI): Stent thrombosis / OR (95% CI): Stroke / OR (95% CI): Mortality/MI/IDR (primary endpoint): cangrelor vs comparator arm; for Mortality/Q-wave MI/IDR / Mortality/Q-wave MI/Stent thrombosis: exploratory
[1] = 48-hour, MITT, listed as cangrelor

Procedure: The diagnosis of non-ST-segment elevation myocardial infarction required troponin I or T greater than the upper limit of normal within 24 hours of randomization (or if troponin results were unavailable at that time, creatine kinase-myocardial band isoenzyme [CK-MB] greater than the upper limit of normal). The diagnosis of unstable angina required ischemic chest discomfort occurring at rest and lasting ≧10 minutes within the 24 hours prior to randomization and dynamic electrocardiographic changes; age ≧65 years and/or diabetes mellitus were also required.
The primary efficacy endpoint was the composite of mortality, myocardial infarction, or ischemia-driven revascularization at 48 hours. The primary analysis was performed on a modified intent-to-treat population. Confirmatory analyses were performed on an intent-to-treat population. Secondary endpoints included the individual rates of mortality, myocardial infarction, new Q-wave myocardial infarction, ischemia-driven revascularization, abrupt vessel closure, or stroke at 48 hours. Mortality at 30 days and 1 year was also recorded. The clinical events committee adjudicated myocardial infarction, Q-wave myocardial infarction, ischemia-driven revascularization, stent thromboses, and stroke (ischemic or hemorrhagic). The definition of stent thrombosis was similar to the Academic Research Consortium definition of definite stent thrombosis. After review of the prespecified analyses, two exploratory endpoints less reliant on periprocedural biomarker ascertainment were examined. The exploratory endpoints, which were composed of prespecified and adjudicated endpoints, were the composite of mortality, Q-wave myocardial infarction, or ischemia-driven revascularization and the composite of mortality, Q-wave myocardial infarction, or stent thrombosis. Bleeding and adverse events through 48 hours were compared.
All efficacy analyses were performed on the modified intent-to-treat population, defined as all randomized patients who received at least one dose of study drug and underwent the index PCI. All safety-related analyses were performed on the safety population, which included all patients who received at least one dose of assigned study drug. Patients in the safety analyses were assigned to a treatment arm based on treatment actually received, not as randomized. Intent-to-treat analyses are also presented for full disclosure of results. All statistical tests were two-tailed using a level of significance of 0.05. […] Logistic regression was also used to analyze the majority of the remaining secondary endpoints.

SMILES: CSCCNc1nc(SCCC(F)(F)F)nc2c1ncn2[C@@H]1O[C@H](COP(=O)(O)OP(=O)(O)C(Cl)(Cl)P(=O)(O)O)[C@@H](O)[C@H]1O [Cangrelor, cangrelor]
- All-cause mortality (30-day, ITT): 36 (1.3) no. (%)
- IDR (30-day, ITT): 37 (1.4) no. (%)
- MI (30-day, ITT): 190 (7.1) no. (%)
- Mortality/MI/IDR (30-day, ITT): 230 (8.6) no. (%)
- Q-wave MI (30-day, ITT): 8 (0.3) no. (%)
- Stent thrombosis (30-day, ITT): 15 (0.6) no. (%)
- OR (95% CI): All-cause mortality (30-day, ITT): 0.754 (0.487, 1.167)
- OR (95% CI): IDR (30-day, ITT): 0.743 (0.483, 1.142)
- OR (95% CI): MI (30-day, ITT): 0.924 (0.752, 1.135)
- OR (95% CI): Mortality/MI/IDR (30-day, ITT): 0.885 (0.734, 1.067)
- OR (95% CI): Mortality/Q-wave MI/IDR (30-day, ITT): 0.718 (0.524, 0.984)
- OR (95% CI): Mortality/Q-wave MI/Stent thrombosis (30-day, ITT): 0.648 (0.453, 0.927)
- OR (95% CI): Q-wave MI (30-day, ITT): 0.526 (0.222, 1.242)
- OR (95% CI): Stent thrombosis (30-day, ITT): 0.508 (0.272, 0.950)
- Mortality/Q-wave MI/IDR (30-day, ITT): 69 (2.6) no. (%)
- Mortality/Q-wave MI/Stent thrombosis (30-day, ITT): 51 (1.9) no. (%)
- All-cause mortality (30-day, MITT): 33 (1.2) no. (%)
- IDR (30-day, MITT): 37 (1.4) no. (%)
- MI (30-day, MITT): 189 (7.1) no. (%)
- Mortality/MI/IDR (30-day, MITT): 226 (8.5) no. (%)
- Q-wave MI (30-day, MITT): 8 (0.3) no. (%)
- Stent thrombosis (30-day, MITT): 15 (0.6) no. (%)
- OR (95% CI): All-cause mortality (30-day, MITT): 0.725 (0.461, 1.140)
- OR (95% CI): IDR (30-day, MITT): 0.796 (0.515, 1.231)
- OR (95% CI): MI (30-day, MITT): 0.929 (0.756, 1.142)
- OR (95% CI): Mortality/MI/IDR (30-day, MITT): 0.892 (0.739, 1.078)
- OR (95% CI): Mortality/Q-wave MI/IDR (30-day, MITT): 0.730 (0.528, 1.008)
- OR (95% CI): Mortality/Q-wave MI/Stent thrombosis (30-day, MITT): 0.647 (0.447, 0.935)
- OR (95% CI): Q-wave MI (30-day, MITT): 0.566 (0.237, 1.352)
- OR (95% CI): Stent thrombosis (30-day, MITT): 0.529 (0.282, 0.993)
- Mortality/Q-wave MI/IDR (30-day, MITT): 66 (2.5) no. (%)
- Mortality/Q-wave MI/Stent thrombosis (30-day, MITT): 48 (1.8) no. (%)
- All-cause mortality (30-day, Safety population): 34 (1.3) no. (%)
- IDR (30-day, Safety population): 37 (1.4) no. (%)
- MI (30-day, Safety population): 188 (7.1) no. (%)
- Mortality/MI/IDR (30-day, Safety population): 226 (8.5) no. (%)
- Q-wave MI (30-day, Safety population): 8 (0.3) no. (%)
- Stent thrombosis (30-day, Safety population): 15 (0.6) no. (%)
- OR (95% CI): All-cause mortality (30-day, Safety population): 0.747 (0.477, 1.170)
- OR (95% CI): IDR (30-day, Safety population): 0.779 (0.504, 1.202)
- OR (95% CI): MI (30-day, Safety population): 0.913 (0.743, 1.122)
- OR (95% CI): Mortality/MI/IDR (30-day, Safety population): 0.884 (0.732, 1.067)
- OR (95% CI): Mortality/Q-wave MI/IDR (30-day, Safety population): 0.732 (0.531, 1.010)
- OR (95% CI): Mortality/Q-wave MI/Stent thrombosis (30-day, Safety population): 0.651 (0.452, 0.938)
- OR (95% CI): Q-wave MI (30-day, Safety population): 0.528 (0.224, 1.248)
- OR (95% CI): Stent thrombosis (30-day, Safety population): 0.529 (0.282, 0.993)
- Mortality/Q-wave MI/IDR (30-day, Safety population): 67 (2.5) no. (%)
- Mortality/Q-wave MI/Stent thrombosis (30-day, Safety population): 49 (1.8) no. (%)
- All-cause mortality (48-hour, ITT): 8 (0.3) no. (%)
- IDR (48-hour, ITT): 19 (0.7) no. (%)
- MI (48-hour, ITT): 177 (6.6) no. (%)
- Mortality/MI/IDR (48-hour, ITT): 187 (6.9) no. (%)
- Q-wave MI (48-hour, ITT): 4 (0.1) no. (%)
- Stent thrombosis (48-hour, ITT): 5 (0.2) no. (%)
- Stroke (48-hour, ITT): 7 (0.3) no. (%)
- OR (95% CI): All-cause mortality (48-hour, ITT): 0.415 (0.181, 0.950)
- OR (95% CI): IDR (48-hour, ITT): 0.721 (0.398, 1.307)
- OR (95% CI): MI (48-hour, ITT): 0.906 (0.734, 1.120)
- OR (95% CI): Mortality/MI/IDR (48-hour, ITT): 0.859 (0.701, 1.054)
- OR (95% CI): Mortality/Q-wave MI/IDR (48-hour, ITT): 0.558 (0.341, 0.915)
- OR (95% CI): Mortality/Q-wave MI/Stent thrombosis (48-hour, ITT): 0.409 (0.224, 0.749)
- OR (95% CI): Q-wave MI (48-hour, ITT): 0.439 (0.135, 1.428)
- OR (95% CI): Stent thrombosis (48-hour, ITT): 0.308 (0.113, 0.842)
- OR (95% CI): Stroke (48-hour, ITT): 1.155 (0.388, 3.442)
- Mortality/Q-wave MI/IDR (48-hour, ITT): 25 (0.9) no. (%)
- Mortality/Q-wave MI/Stent thrombosis (48-hour, ITT): 15 (0.6) no. (%)
- All-cause mortality (48-hour, MITT): 6 (0.2) no. (%)
- IDR (48-hour, MITT): 19 (0.7) no. (%)
- MI (48-hour, MITT): 177 (6.7) no. (%)
- Mortality/MI/IDR (primary endpoint) (48-hour, MITT): 185 (7.0) no. (%)
- Q-wave MI (48-hour, MITT): 4 (0.2) no. (%)
- Stent thrombosis (48-hour, MITT): 5 (0.2) no. (%)
- Stroke (48-hour, MITT): 7 (0.3) no. (%)
- OR (95% CI): All-cause mortality (48-hour, MITT): 0.330 (0.131, 0.833)
- OR (95% CI): IDR (48-hour, MITT): 0.786 (0.430, 1.439)
- OR (95% CI): MI (48-hour, MITT): 0.917 (0.742, 1.133)
- OR (95% CI): Mortality/MI/IDR (primary endpoint) (48-hour, MITT): 0.867 (0.706, 1.065)
- OR (95% CI): Mortality/Q-wave MI/IDR (48-hour, MITT): 0.554 (0.332, 0.926)
- OR (95% CI): Mortality/Q-wave MI/Stent thrombosis (48-hour, MITT): 0.377 (0.199, 0.717)
- OR (95% CI): Q-wave MI (48-hour, MITT): 0.497 (0.149, 1.652)
- OR (95% CI): Stent thrombosis (48-hour, MITT): 0.310 (0.113, 0.847)
- OR (95% CI): Stroke (48-hour, MITT): 1.394 (0.442, 4.398)
- OR (95% CI): All-cause mortality [1]: 0.33
- OR (95% CI): Mortality/MI/IDR (primary endpoint) [1]: 0.87
- OR (95% CI): Stent thrombosis [1]: 0.31
- Mortality/Q-wave MI/IDR (48-hour, MITT): 23 (0.9) no. (%)
- Mortality/Q-wave MI/Stent thrombosis (48-hour, MITT): 13 (0.5) no. (%)
